Patent US20260016473A1 (priority 2022, published 2026)

Experiments:
MERS-CoV Spike S1 = MERS-CoV Spike S1 (Middle East respiratory syndrome-related coronavirus, UniProt K9N5Q8); format: biochemical
SARS-CoV2 Spike S1 = target: T1, SARS-CoV2 Spike S1 (Severe acute respiratory syndrome coronavirus 2, UniProt P0DTC2); format: biochemical, SARS-CoV-2
T1 construct: SARS-CoV2 Spike S1 (Product number: 40591-V08); purchased Sino Biological, Inc. 40591-V08

[1] = tested on: α-amylase, Lactoferrin, Lysozyme, Mucin, EGF, IgA; format: biochemical
human serum-derived IgA = format: biochemical
SARS-CoV Spike S1 = SARS-CoV Spike S1 (Severe acute respiratory syndrome coronavirus, UniProt P59594); format: biochemical
SARS-CoV2 Spike S2 = target: T2, SARS-CoV2 Spike S2 (Severe acute respiratory syndrome coronavirus 2, UniProt P0DTC2); format: biochemical, SARS-CoV-2
T2 construct: SARS-CoV2 Spike S2 (Product number: 40590-V08H1); purchased Sino Biological, Inc. 40590-V08H1

SARS-CoV2 Spike RBD = target: T3, SARS-CoV2 Spike RBD (Severe acute respiratory syndrome coronavirus 2, UniProt P0DTC2); format: biochemical, SARS-CoV-2
T3 construct: purchased Sino Biological, Inc. 40592-V08H

MERS-CoV Spike S1, sequence (K9N5Q8 18-751 limits assumed): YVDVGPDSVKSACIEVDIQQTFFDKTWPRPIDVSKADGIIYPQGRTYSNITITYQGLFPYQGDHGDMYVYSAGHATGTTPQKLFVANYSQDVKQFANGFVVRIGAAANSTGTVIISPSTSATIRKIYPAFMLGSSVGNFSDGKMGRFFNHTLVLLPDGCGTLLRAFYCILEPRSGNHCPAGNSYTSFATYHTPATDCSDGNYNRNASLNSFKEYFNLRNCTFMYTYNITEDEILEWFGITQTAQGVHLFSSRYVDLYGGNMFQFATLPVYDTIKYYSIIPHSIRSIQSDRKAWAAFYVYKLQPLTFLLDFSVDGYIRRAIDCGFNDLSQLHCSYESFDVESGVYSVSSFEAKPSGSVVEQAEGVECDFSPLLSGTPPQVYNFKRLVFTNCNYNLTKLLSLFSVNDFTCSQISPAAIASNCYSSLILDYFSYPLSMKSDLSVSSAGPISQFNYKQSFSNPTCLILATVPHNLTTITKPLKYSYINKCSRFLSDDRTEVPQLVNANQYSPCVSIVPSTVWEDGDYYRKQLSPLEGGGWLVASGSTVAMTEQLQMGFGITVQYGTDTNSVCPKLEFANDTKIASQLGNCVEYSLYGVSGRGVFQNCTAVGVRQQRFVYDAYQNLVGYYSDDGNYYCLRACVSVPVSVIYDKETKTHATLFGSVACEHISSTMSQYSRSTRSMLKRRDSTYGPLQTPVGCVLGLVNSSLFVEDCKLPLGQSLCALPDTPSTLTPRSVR

CCC(C)c1nc2c(CCCNC(=N)N)[nH]c(-c3c[nH]c4ccccc34)cn-2c1=O (centres unmarked) [Cypridina Luciferin]
reaction with the protein of MERS-CoV (MERS-CoV Spike S1): did not react
luminescent reaction at S1 (SARS-CoV2 Spike S1): caused a luminescent reaction
reaction with spike protein of SARS-CoV-2 (SARS-CoV2 Spike S1): reacted
luminescent reaction with various proteins [1]: did not cause a luminescent reaction
luminescent reaction with immunoglobulin protein IgA (human serum-derived IgA): did not cause a luminescent reaction
reaction with spike protein of SARS-CoV (SARS-CoV Spike S1): reacted
luminescent reaction at S2 (SARS-CoV2 Spike S2): caused a luminescent reaction
luminescent reaction at the RBD domain (SARS-CoV2 Spike RBD): did not cause a reaction at the PBD domain at all
